Drawing on the NIST ThermoML archive (doi:10.1021/je200030k), this text covers mass density and refractive index for three molecules.

± gives the expanded uncertainty stated by the source.

For data set [1] the following is noted: 101.33 kPa, Liquid, Vibrating tube method.
Data set [2] can be described thus: refractive index (Na D-line) (dimensionless). The settings on record: 101.33 kPa, Liquid, Standard Abbe refractometry.

A word on the mass density: it is mass per unit of volume. For orientation: refractive index means a measure of how strongly the sample bends light. Turning to `CCCCn1cc[n+](C)c1.NCC(=O)[O-]` [1-butyl-3-methylimidazolium glycinate], the mass density was found to be 1260.26 ± 1.1 kg/m3 in data set [1] (298.15 K), 1257.2 ± 1.1 kg/m3 in data set [1] (303.15 K), 1254.1 ± 1.1 kg/m3 in data set [1] (308.15 K) and 1250.77 ± 1.1 kg/m3 in data set [1] (313.15 K). In addition, the refractive index in data set [2] (298.15 K) was 1.52 ± 0.002; in data set [2] (303.15 K), 1.519 ± 0.002; in data set [2] (308.15 K), 1.517 ± 0.002; in data set [2] (313.15 K), 1.517 ± 0.002.
As for `CCCCO` [butan-1-ol], the mass density amounted to 806 ± 1 kg/m3 in data set [1] (298.15 K), 802.4 ± 1 kg/m3 in data set [1] (303.15 K), 798.2 ± 1 kg/m3 in data set [1] (308.15 K) and 794.6 ± 1 kg/m3 in data set [1] (313.15 K). The refractive index is 1.397 ± 0.002 in data set [2] (298.15 K), 1.395 ± 0.002 in data set [2] (303.15 K), 1.393 ± 0.002 in data set [2] (308.15 K) and 1.391 ± 0.002 in data set [2] (313.15 K).
For the molecule `CC(C)O` [propan-2-ol], the mass density is recorded as 781.2 ± 1 kg/m3 in data set [1] (298.15 K), 774 ± 1 kg/m3 in data set [1] (303.15 K), 765.8 ± 1 kg/m3 in data set [1] (308.15 K) and 757.2 ± 1 kg/m3 in data set [1] (313.15 K). Besides, the refractive index in data set [2] (298.15 K) amounted to 1.375 ± 0.002; in data set [2] (303.15 K), 1.374 ± 0.002; in data set [2] (308.15 K), 1.373 ± 0.002; in data set [2] (313.15 K), 1.372 ± 0.002.
